In this assay the test system is L1210 leukemia ip in BDF1 mice, survival T/C. As to the kind of experiment: NCI In Vivo Anticancer Drug Screen. Data for tumor model L1210 Leukemia (intraperitoneal) in B6D2F1 (BDF1) mice. Particulars: endpoint: mean survival time, higher = longer survival. The method, boiled down:
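Tumor was transplanted into mice, which were then dosed with test compound or vehicle alone. Survival was recorded for each group, and the treated figure was expressed relative to the control figure.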

[1] abbreviates: dose: 50.0 mg/kg/injection, schedule: Q04DX003 (ip), vehicle: Klucel (hydroxypropylcellulose) (HPC).
[2] abbreviates: dose: 100.0 mg/kg/injection, schedule: Q04DX003 (ip), vehicle: Klucel (hydroxypropylcellulose) (HPC).
Where [3] appears, read: dose: 200.0 mg/kg/injection, schedule: Q04DX003 (ip), vehicle: Klucel (hydroxypropylcellulose) (HPC).
Setting [4] is: dose: 100.0 mg/kg/injection, schedule: Q01DX009 (ip), vehicle: Klucel (hydroxypropylcellulose) (HPC).
Where [5] appears, read: dose: 200.0 mg/kg/injection, schedule: Q01DX009 (ip), vehicle: Klucel (hydroxypropylcellulose) (HPC).
The mark [6] stands for this setting: dose: 100.0 mg/kg/injection, schedule: Q01DX001 (ip), vehicle: carboxymethylcellulose (CMC).
Where [7] appears, read: dose: 200.0 mg/kg/injection, schedule: Q01DX001 (ip), vehicle: carboxymethylcellulose (CMC).
Setting [8] is: dose: 400.0 mg/kg/injection, schedule: Q01DX001 (ip), vehicle: carboxymethylcellulose (CMC).
[9] abbreviates: dose: 50.0 mg/kg/injection, schedule: Q01DX009 (ip), vehicle: saline with Tween-80.
The mark [10] stands for this setting: dose: 100.0 mg/kg/injection, schedule: Q01DX009 (ip), vehicle: saline with Tween-80.
Where [11] appears, read: dose: 200.0 mg/kg/injection, schedule: Q01DX009 (ip), vehicle: saline with Tween-80.

Values joined by “and” are separate entries in the source; they are usually repeats but may differ in a detail not shown here. Equal entries are not always repeated. Toxic doses and inconclusive results are not listed.

Among the data in PubChem BioAssay AID248 (DTP/NCI, 2004) are T/C values, retold here.

For the compound `Nc1ncnc2nc(N=Nc3ccc(S(=O)(=O)N(CCCl)CCCl)cc3)[nH]c12`, the T/C is, setting by setting: under setting [1], 93 % of control; under setting [2], 88 % of control and 91 % of control; under setting [3], 96 % of control.

In the case of `CCCCNC(=S)NCCCC`, the T/C reads like this: under setting [4], 92 % of control; (dose: 100.0 mg/kg/injection, schedule: Q04DX002 (ip), vehicle: Klucel (hydroxypropylcellulose) (HPC)) 98 % of control; under setting [5], 98 % of control; (dose: 200.0 mg/kg/injection, schedule: Q04DX002 (ip), vehicle: Klucel (hydroxypropylcellulose) (HPC)) 104 % of control.

With `CC(C)C1=CC23CCC4C(C)(C(=O)O)CCCC4(C)C2CC1C1C(=O)N(CCCN(C)C)C(=O)C13` (centres undefined), the T/C was 96 % of control (dose: 75.0 mg/kg/injection, schedule: Q01DX001 (ip), vehicle: other) and 94 % of control (dose: 150.0 mg/kg/injection, schedule: Q01DX001 (ip), vehicle: other).

Take `[N-]=[N+]=Nc1ccc(S(=O)(=O)Nc2ncccn2)cc1`: the T/C is 113 % of control under setting [6]; 93 % of control (dose: 100.0 mg/kg/injection, schedule: Q01DX009 (ip), vehicle: carboxymethylcellulose (CMC)); 100 % of control and 108 % of control (dose: 100.0 mg/kg/injection, schedule: Q04DX002 (ip), vehicle: carboxymethylcellulose (CMC)); 104 % of control (dose: 100.0 mg/kg/injection, schedule: Q04DX003 (ip), vehicle: carboxymethylcellulose (CMC)); 108 % of control under setting [7]; 88 % of control (dose: 200.0 mg/kg/injection, schedule: Q01DX009 (ip), vehicle: carboxymethylcellulose (CMC)). The T/C reads like this: (dose: 200.0 mg/kg/injection, schedule: Q04DX002 (ip), vehicle: carboxymethylcellulose (CMC)) 102 % of control and 103 % of control; (dose: 200.0 mg/kg/injection, schedule: Q04DX003 (ip), vehicle: carboxymethylcellulose (CMC)) 96 % of control; under setting [8], 90 % of control; (dose: 400.0 mg/kg/injection, schedule: Q01DX009 (ip), vehicle: carboxymethylcellulose (CMC)) 98 % of control; (dose: 400.0 mg/kg/injection, schedule: Q04DX002 (ip), vehicle: carboxymethylcellulose (CMC)) 103 % of control and 107 % of control; (dose: 400.0 mg/kg/injection, schedule: Q04DX003 (ip), vehicle: carboxymethylcellulose (CMC)) 110 % of control.

On to `CC12CCCCC1=CC(OC(=O)c1ccc([N+](=O)[O-])cc1)CC2` (centres undefined), for which the T/C runs as follows: under setting [9], 94 % of control; under setting [10], 98 % of control; under setting [11], 94 % of control.

In the case of `CC(Cl)C(=O)NC(C)C(=O)O` (centres undefined), the T/C was 97 % of control (dose: 12.5 mg/kg/injection, schedule: Q04DX002 (ip), vehicle: saline); 111 % of control (dose: 25.0 mg/kg/injection, schedule: Q04DX002 (ip), vehicle: saline); 97 % of control (dose: 50.0 mg/kg/injection, schedule: Q04DX002 (ip), vehicle: saline).

On to `Clc1nn2cnnc2c2ccccc12`, for which the T/C (dose: 20.0 mg/kg/injection, schedule: Q04DX003 (ip), vehicle: saline) is 110 % of control.

In the case of `Nc1ccc(N(CCCl)CCN(CCCl)c2ccc(N)cc2)cc1`, the T/C (dose: 0.25 mg/kg/injection, schedule: Q01DX009 (ip), vehicle: saline) was 102 % of control; the T/C (dose: 0.5 mg/kg/injection, schedule: Q01DX009 (ip), vehicle: saline) is 109 % of control; the T/C (dose: 1.0 mg/kg/injection, schedule: Q01DX009 (ip), vehicle: saline) was 118 % of control; the T/C (dose: 1.2 mg/kg/injection, schedule: Q01DX009 (ip), vehicle: carboxymethylcellulose (CMC)) was 109 % of control; the T/C (dose: 2.5 mg/kg/injection, schedule: Q01DX001 (ip), vehicle: carboxymethylcellulose (CMC)) is 106 % of control; the T/C (dose: 2.5 mg/kg/injection, schedule: Q01DX009 (ip), vehicle: carboxymethylcellulose (CMC)) was 111 % of control. The T/C runs as follows: (dose: 2.9 mg/kg/injection, schedule: Q01DX001 (ip), vehicle: carboxymethylcellulose (CMC)) 114 % of control; (dose: 2.9 mg/kg/injection, schedule: Q01DX009 (ip), vehicle: carboxymethylcellulose (CMC)) 119 % of control; (dose: 2.9 mg/kg/injection, schedule: Q01DX009 (ip), vehicle: saline) 169 % of control; (dose: 4.0 mg/kg/injection, schedule: Q01DX001 (ip), vehicle: saline) 106 % of control; (dose: 4.4 mg/kg/injection, schedule: Q01DX001 (ip), vehicle: carboxymethylcellulose (CMC)) 119 % of control; (dose: 4.4 mg/kg/injection, schedule: Q01DX009 (ip), vehicle: saline) 159 % of control. In addition, the T/C runs as follows: (dose: 5.0 mg/kg/injection, schedule: Q01DX001 (ip), vehicle: carboxymethylcellulose (CMC)) 115 % of control; (dose: 6.0 mg/kg/injection, schedule: Q01DX001 (ip), vehicle: saline) 122 % of control; (dose: 10.0 mg/kg/injection, schedule: Q01DX001 (ip), vehicle: saline) 111 % of control; (dose: 10.0 mg/kg/injection, schedule: Q01DX009 (ip), vehicle: carboxymethylcellulose (CMC)) 106 % of control; (dose: 10.0 mg/kg/injection, schedule: Q01DX009 (ip), vehicle: saline) 105 % of control; (dose: 15.0 mg/kg/injection, schedule: Q01DX001 (ip), vehicle: saline) 117 % of control.

For the compound `Cc1ccc(C(C)C)cc1NC(=O)c1cccc([N+](=O)[O-])c1`, the T/C reads like this: (dose: 100.0 mg/kg/injection, schedule: Q01DX009 (ip), vehicle: other) 98 % of control; (dose: 200.0 mg/kg/injection, schedule: Q01DX009 (ip), vehicle: other) 88 % of control; (dose: 400.0 mg/kg/injection, schedule: Q01DX009 (ip), vehicle: other) 98 % of control.

As to `O=C(O)CCSSCCC(=O)O`, the T/C is 103 % of control under setting [1]; 95 % of control under setting [4]; 86 % of control under setting [2]; 87 % of control under setting [5]; 86 % of control under setting [3].

As for `Cn1c2ccccc2c2nnc(NCCCCO)nc21`, the T/C reads like this: (dose: 100.0 mg/kg/injection, schedule: Q04DX002 (ip), vehicle: saline) 106 % of control; (dose: 200.0 mg/kg/injection, schedule: Q04DX002 (ip), vehicle: saline) 97 % of control; (dose: 400.0 mg/kg/injection, schedule: Q04DX002 (ip), vehicle: saline) 101 % of control.

For `O=c1cc[nH]c2ccc(Cl)cc12`, the T/C reads like this: (dose: 50.0 mg/kg/injection, schedule: Q01DX001 (ip), vehicle: saline) 117 % of control; (dose: 100.0 mg/kg/injection, schedule: Q01DX001 (ip), vehicle: saline) 102 % of control.

Consider `CC(=O)OC1CC2CCC1C2Br` (centres undefined), for which the T/C by setting is: under setting [6], 95 % of control; under setting [7], 93 % of control; under setting [8], 90 % of control.

For the compound `CCNc1nc(N)nc2n[nH]nc12`, the T/C was 95 % of control under setting [9]; 98 % of control (dose: 50.0 mg/kg/injection, schedule: Q04DX003 (ip), vehicle: saline with Tween-80); 101 % of control (dose: 100.0 mg/kg/injection, schedule: Q01DX001 (ip), vehicle: saline with Tween-80); 89 % of control under setting [10]; 101 % of control (dose: 100.0 mg/kg/injection, schedule: Q04DX003 (ip), vehicle: saline with Tween-80); 94 % of control (dose: 200.0 mg/kg/injection, schedule: Q01DX001 (ip), vehicle: saline with Tween-80). The T/C is 89 % of control under setting [11] and 98 % of control (dose: 200.0 mg/kg/injection, schedule: Q04DX003 (ip), vehicle: saline with Tween-80).

On to `Cc1cc(/C=N/Nc2ccc3cccc(O)c3n2)c(O)c2ncccc12`, for which, under setting [7], the T/C is 93 % of control.

As for `Cc1ccc2c(c1)C(c1ccccc1)=C(NC1CCCCC1)C2=O`, the T/C reads like this: (dose: 100.0 mg/kg/injection, schedule: Q01DX001 (ip), vehicle: Klucel (hydroxypropylcellulose) (HPC)) 87 % of control; (dose: 200.0 mg/kg/injection, schedule: Q01DX001 (ip), vehicle: Klucel (hydroxypropylcellulose) (HPC)) 91 % of control; (dose: 400.0 mg/kg/injection, schedule: Q01DX001 (ip), vehicle: Klucel (hydroxypropylcellulose) (HPC)) 92 % of control.
